# Assay results published in publication PMC10584170, “Machine learning-based phenotypic imaging to characterise the targetable biology of Plasmodium falciparum male gametocytes for the development of transmission-blocking antimalarials” (PLOS Pathogens, 2023).
# Read-outs that look alike come from different tables or passages of the source.
# Key:
# [1] = test system: P. falciparum female gametocytes; assay: P. falciparum Dual Gamete Formation Assay (PfDGFA), female readout (Pfs25-positive female gametes); type: cell-based, Plasmodium falciparum NF54; details: for Selectivity ratio F: HepG2 Tox50 versus female IC50; for IC50: PfDGFA, 24 h incubation with gametocytes before induction, female gamete readout, read-out: Female IC50; for HitlevelF: number of replicates with >50% inhibition in the female readout
# How it was run: (§1)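 First, day-14 P. falciparum NF54 gametocytes receive compound for 24 h at 37°C in 1% O2/3% CO2. Next, ookinete medium with Cy3 anti-Pfs25 triggers gametogenesis at 28°C and male exflagellation is imaged. Finally, after 24 h in the dark, Cy3-labelled females are imaged.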
# [2] = test system: HepG2 cells; assay: HepG2 cytotoxicity counter-screen; details: cytotoxic activity against HepG2 cells
# [3] = test system: P. falciparum male gametocytes; assay: P. falciparum Dual Gamete Formation Assay (PfDGFA), male readout (exflagellation); type: cell-based, Plasmodium falciparum NF54; details: for Selectivity Ratio M: HepG2 Tox50 versus male IC50; for IC50: PfDGFA, 24 h incubation with gametocytes before induction, exflagellation readout, read-out: Male IC50; for HitlevelM: number of replicates with >50% inhibition in the male readout
# How it was run: as §1
# [4] = PfDGFA at 2µM, 24h preincubation with gametocytes, average of replicates
# [5] = PfDGFA at 2µM, 24h preincubation with gametocytes, replicate R1
# [6] = PfDGFA at 2µM, 24h preincubation with gametocytes, replicate R3
# [7] = PfDGFA at 2µM, 24h preincubation with gametocytes, replicate R4
# [8] = Plasmodium falciparum, PfDGFA at 2µM, 24h preincubation with gametocytes, average of replicates, read-out: Average inhibition female (%)
# [9] = Plasmodium falciparum, PfDGFA at 2µM, 24h preincubation with gametocytes, replicate R1, read-out: % inhibition female (individual replicates) R1
# [10] = Plasmodium falciparum, PfDGFA at 2µM, 24h preincubation with gametocytes, replicate R2, read-out: % inhibition female (individual replicates) R2
# [11] = Plasmodium falciparum, PfDGFA at 2µM, 24h preincubation with gametocytes, replicate R3, read-out: % inhibition female (individual replicates) R3
# [12] = Plasmodium falciparum, PfDGFA at 2µM, 24h preincubation with gametocytes, replicate R4, read-out: % inhibition female (individual replicates) R4
# [13] = Plasmodium falciparum, PfDGFA at 2µM, 24h preincubation with gametocytes, average of replicates, read-out: Average inhibition male (%)
# [14] = Plasmodium falciparum, PfDGFA at 2µM, 24h preincubation with gametocytes, replicate R1, read-out: % inhibition male (individual replicates) R1
# [15] = Plasmodium falciparum, PfDGFA at 2µM, 24h preincubation with gametocytes, replicate R2, read-out: % inhibition male (individual replicates) R2
# [16] = Plasmodium falciparum, PfDGFA at 2µM, 24h preincubation with gametocytes, replicate R3, read-out: % inhibition male (individual replicates) R3
# [17] = Plasmodium falciparum, PfDGFA at 2µM, 24h preincubation with gametocytes, replicate R4, read-out: % inhibition male (individual replicates) R4
# [18] = Plasmodium falciparum, 2µM, 24h preincubation with gametocytes, average of replicates, read-out: Average inhibition female (%)
# [19] = Plasmodium falciparum, 2µM, 24h preincubation with gametocytes, replicate R1, read-out: % inhibition female (individual replicates) R1
# [20] = Plasmodium falciparum, 2µM, 24h preincubation with gametocytes, replicate R2, read-out: % inhibition female (individual replicates) R2
# [21] = Plasmodium falciparum, 2µM, 24h preincubation with gametocytes, replicate R3, read-out: % inhibition female (individual replicates) R3
# [22] = Plasmodium falciparum, 2µM, 24h preincubation with gametocytes, replicate R4, read-out: % inhibition female (individual replicates) R4
# [23] = Plasmodium falciparum, 2µM, 24h preincubation with gametocytes, average of replicates, read-out: Average inhibition male (%)
# [24] = Plasmodium falciparum, 2µM, 24h preincubation with gametocytes, replicate R1, read-out: % inhibition male (individual replicates) R1
# [25] = Plasmodium falciparum, 2µM, 24h preincubation with gametocytes, replicate R2, read-out: % inhibition male (individual replicates) R2
# [26] = Plasmodium falciparum, 2µM, 24h preincubation with gametocytes, replicate R4, read-out: % inhibition male (individual replicates) R4
compound,measurement,setting,value
CC(C)(C)c1ccc(CNC(=O)c2ccc(CNC3CCC(N)CC3)s2)cc1 (stereo not drawn) [TCMDC-140777],Selectivity ratio F,[1],1.74
same,Average inhibition female (%),[1]; [4],32.6%
same,% inhibition female (individual replicates) R1,[1]; [5],23.5%
same,% inhibition female (individual replicates) R3,[1]; [6],26.9%
same,% inhibition female (individual replicates) R4,[1]; [7],56.3%
same,IC50,[1],5.36 µM
same,HitlevelF,[1]; 2µM,1
same,Tox50,[2],9.32 µM
same,Selectivity Ratio M,[3],7.72
same,Average inhibition male (%),[3]; [4],76.0%
same,% inhibition male (individual replicates) R1,[3]; [5],74.4%
same,% inhibition male (individual replicates) R3,[3]; [6],56.4%
same,% inhibition male (individual replicates) R4,[3]; [7],93.6%
same,IC50,[3],1.21 µM
same,HitlevelM,[3]; 2µM,4
CCN(CC)CCOc1ccc(Nc2ncc3cc(-c4c(Cl)cccc4Cl)c(=O)n(C)c3n2)cc1 [TCMDC-140940],Selectivity ratio F,[1],0.27
same,inhibition at 2 µM,[1]; [8],-0.6%
same,inhibition at 2 µM,[1]; [9],-7.5%
same,inhibition at 2 µM,[1]; [10],1.2%
same,inhibition at 2 µM,[1]; [11],-12%
same,inhibition at 2 µM,[1]; [12],15.8%
same,IC50,[1]; Plasmodium falciparum,> 10 µM
same,HitlevelF,[1]; 2µM,0
same,Tox50,[2],2.66 µM
same,Selectivity Ratio M,[3],1.38
same,inhibition at 2 µM,[3]; [13],72.1%
same,inhibition at 2 µM,[3]; [14],72.9%
same,inhibition at 2 µM,[3]; [15],64.9%
same,inhibition at 2 µM,[3]; [16],74%
same,inhibition at 2 µM,[3]; [17],76.8%
same,IC50,[3]; Plasmodium falciparum,1.93 µM
same,HitlevelM,[3]; 2µM,4
CCN(CC)CCN(Cc1ccc(-c2ccc(C(F)(F)F)cc2)cc1)C(=O)Cn1cc(Cc2cnn(C)c2)c(=O)nc1/C=C/c1cccc(F)c1F.O=C(O)C(O)C(O)C(=O)O [TCMDC-140964],Selectivity ratio F,[1],3.16
same,inhibition at 2 µM,[1]; [18],36.2%
same,inhibition at 2 µM,[1]; [19],34%
same,inhibition at 2 µM,[1]; [20],38.6%
same,inhibition at 2 µM,[1]; [21],28.7%
same,inhibition at 2 µM,[1]; [22],43.5%
same,IC50,[1]; Plasmodium falciparum,4.1 µM
same,Tox50,[2],12.97 µM
same,Selectivity Ratio M,[3],20.63
same,inhibition at 2 µM,[3]; [23],99.3%
same,inhibition at 2 µM,[3]; [24],98.8%
same,inhibition at 2 µM,[3]; [25],97.8%
same,inhibition at 2 µM,[3]; [26],101%
same,IC50,[3]; Plasmodium falciparum,0.63 µM
CC(C)(CNC(=O)[C@H]1CCCCN1)c1nc(-c2ccc(Cl)c(O)c2)c(-c2ccncc2)[nH]1.Cl [TCMDC-141070],HitlevelF,"[1]; 2µM, 24h preincubation",4
same,Selectivity ratio F,[1],51.37
same,inhibition at 2 µM,"[1]; Plasmodium falciparum, 2µM, 24h preincubation with gametocytes prior to induction of gametogenesis, average of replicates, read-out: Average inhibition female (%)",83.6%
same,inhibition at 2 µM,"[1]; Plasmodium falciparum, 2µM, 24h preincubation with gametocytes prior to induction of gametogenesis, replicate R1, read-out: % inhibition female (individual replicates) R1",71.8%
same,inhibition at 2 µM,"[1]; Plasmodium falciparum, 2µM, 24h preincubation with gametocytes prior to induction of gametogenesis, replicate R2, read-out: % inhibition female (individual replicates) R2",79.1%
same,inhibition at 2 µM,"[1]; Plasmodium falciparum, 2µM, 24h preincubation with gametocytes prior to induction of gametogenesis, replicate R3, read-out: % inhibition female (individual replicates) R3",95.8%
same,inhibition at 2 µM,"[1]; Plasmodium falciparum, 2µM, 24h preincubation with gametocytes prior to induction of gametogenesis, replicate R4, read-out: % inhibition female (individual replicates) R4",87.7%
same,IC50,[1]; Plasmodium falciparum,1.02 µM
same,Tox50,[2],52.33 µM
same,HitlevelM,"[3]; 2µM, 24h preincubation",1
same,Selectivity Ratio M,[3],32.01
same,inhibition at 2 µM,"[3]; Plasmodium falciparum, 2µM, 24h preincubation with gametocytes prior to induction of gametogenesis, average of replicates, read-out: Average inhibition male (%)",20.5%
same,inhibition at 2 µM,"[3]; Plasmodium falciparum, 2µM, 24h preincubation with gametocytes prior to induction of gametogenesis, replicate R1, read-out: % inhibition male (individual replicates) R1",-8.8%
same,inhibition at 2 µM,"[3]; Plasmodium falciparum, 2µM, 24h preincubation with gametocytes prior to induction of gametogenesis, replicate R2, read-out: % inhibition male (individual replicates) R2",-11.5%
same,inhibition at 2 µM,"[3]; Plasmodium falciparum, 2µM, 24h preincubation with gametocytes prior to induction of gametogenesis, replicate R3, read-out: % inhibition male (individual replicates) R3",48.5%
same,inhibition at 2 µM,"[3]; Plasmodium falciparum, 2µM, 24h preincubation with gametocytes prior to induction of gametogenesis, replicate R4, read-out: % inhibition male (individual replicates) R4",54%
same,IC50,[3]; Plasmodium falciparum,1.63 µM
Cl.NCC1(c2nc(-c3ccc(Cl)c(O)c3)c(-c3ccncc3)[nH]2)CCCCC1 [TCMDC-141154],Selectivity ratio F,[1],23.04
same,inhibition at 2 µM,[1]; [18],94.3%
same,inhibition at 2 µM,[1]; [19],92.5%
same,inhibition at 2 µM,[1]; [20],91.3%
same,inhibition at 2 µM,[1]; [21],101%
same,inhibition at 2 µM,[1]; [22],92.3%
same,IC50,[1]; Plasmodium falciparum,0.43 µM
same,Tox50,[2],9.89 µM
same,Selectivity Ratio M,[3],11.58
same,inhibition at 2 µM,[3]; [23],99.7%
same,inhibition at 2 µM,[3]; [24],95.4%
same,inhibition at 2 µM,[3]; [25],103%
same,inhibition at 2 µM,"[3]; Plasmodium falciparum, 2µM, 24h preincubation with gametocytes, replicate R3, read-out: % inhibition male (individual replicates) R3",95.7%
same,inhibition at 2 µM,[3]; [26],105%
same,IC50,[3]; Plasmodium falciparum,0.85 µM
CNC(=O)c1cnc(Nc2ccc(N3CCN(C)CC3)cc2)nc1Nc1ccccc1OC.O=C(O)C(F)(F)F [TCMDC-141382],Selectivity ratio F,[1],3.56
same,inhibition at 2 µM,[1]; [8],0.5%
same,inhibition at 2 µM,[1]; [9],-10.9%
same,inhibition at 2 µM,[1]; [10],1.1%
same,inhibition at 2 µM,[1]; [11],15.6%
same,inhibition at 2 µM,[1]; [12],-3.9%
same,IC50,[1]; Plasmodium falciparum,> 10 µM
same,HitlevelF,[1]; 2µM,0
same,Tox50,[2],35.63 µM
same,Selectivity Ratio M,[3],29.58
same,inhibition at 2 µM,[3]; [13],82.8%
same,inhibition at 2 µM,[3]; [14],83.2%
same,inhibition at 2 µM,[3]; [15],85.9%
same,inhibition at 2 µM,[3]; [16],82.1%
same,inhibition at 2 µM,[3]; [17],80.2%
same,IC50,[3]; Plasmodium falciparum,1.2 µM
same,HitlevelM,[3]; 2µM,4
CN(C)CC(O)COc1ccc(Nc2ncc([N+](=O)[O-])c(Nc3ccccc3O)n2)cc1.O=C(O)C(F)(F)F (stereo not drawn) [TCMDC-141399],Selectivity ratio F,[1],0.27
same,Average inhibition female (%),[1]; [4],9.6%
same,% inhibition female (individual replicates) R1,[1]; [5],0.18%
same,% inhibition female (individual replicates) R3,[1]; [6],2.4%
same,% inhibition female (individual replicates) R4,[1]; [7],9.1%
same,HitlevelF,[1]; 2µM,0
same,Tox50,[2],2.69 µM
same,Selectivity Ratio M,[3],1.47
same,Average inhibition male (%),[3]; [4],87.0%
same,% inhibition male (individual replicates) R1,[3]; [5],80.9%
same,% inhibition male (individual replicates) R4,[3]; [7],85.8%
same,IC50,[3],1.83 µM
same,HitlevelM,[3]; 2µM,3
